Measurements: patent US7279498B2, “Substituted aryl amides as IP antagonists” (Roche Palo Alto LLC, priority 2003, dated 2007)

Key:
[1] = target: T1, rat prostanoid IP receptor (Rattus norvegicus, UniProt P43253); assay: IP receptor activity assay: cyclic AMP accumulation (cAMP Flashplate) in CHO cells; assay type: cell-based; conditions: CHO cells expressing the rat prostanoid IP receptor
T1 construct: expressed in transfected cells; host or cells: Chinese Hamster Ovary cells (kept under geneticin)
T1 sequence (P43253 whole entry): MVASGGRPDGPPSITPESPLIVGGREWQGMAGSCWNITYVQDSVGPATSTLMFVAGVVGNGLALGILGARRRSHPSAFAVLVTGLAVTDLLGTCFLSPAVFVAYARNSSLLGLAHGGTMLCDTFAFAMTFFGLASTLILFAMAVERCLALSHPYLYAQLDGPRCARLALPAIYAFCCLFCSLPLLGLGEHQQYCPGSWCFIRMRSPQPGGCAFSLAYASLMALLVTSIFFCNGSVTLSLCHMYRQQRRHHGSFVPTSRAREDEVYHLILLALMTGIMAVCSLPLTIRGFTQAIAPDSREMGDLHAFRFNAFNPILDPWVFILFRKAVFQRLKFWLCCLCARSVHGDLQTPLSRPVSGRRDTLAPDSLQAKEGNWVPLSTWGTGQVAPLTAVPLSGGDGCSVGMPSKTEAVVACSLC
Protocol: The IP receptor agonist potency of compounds of this invention in vitro was determined by measuring the agonist-mediated cyclic AMP accumulation in an assay utilizing Chinese Hamster Ovary cells expressing the rat prostanoid IP receptor. Cyclic AMP levels were determined using a commercially available Adenylate Cyclase cAMP Flashplate Assay.
Chinese Hamster Ovary cells expressing the rat prostanoid IP receptor were maintained in Ham's Mixture with 10% fetal bovine serum, […] geneticin in 5% carbon dioxide ([…]). Cells were harvested at approximately 90% confluency using Dulbecco's Phosphate-Buffered saline containing 2 mM EDTA, and washed once at 1000×g and resuspended in Wash Buffer. A sample was aliquoted for protein determination. The cell suspension was centrifuged at 1000×g and adjusted to 110–140 E+3 cells/50 μl in the “Stimulation and Detection Buffer” from the assay kit.
The test compounds or vehicle were incubated with 50 μl cells (110–140 E+3 cells) for 5 minutes at room temperature. After the incubation, 100 μl lysis/tracer solution was added to the wells and the radioactivity counted on a Packard Topcount microplate scintillation counter after overnight incubation. The amount of radioactive cAMP bound to the antibody is inversely proportional to the concentration of added non-radioactive cAMP. […]

hERG potassium channel = target: T2, hERG potassium channel (Homo sapiens, UniProt Q12809); assay: hERG Potassium Channel Pharmacology Screening (whole-cell patch-clamp, CHO-K1 cells); assay type: cell-based; conditions: CHO-K1 cells expressing recombinant human hERG channel, read-out: hERG outward current inhibition percentage
T2 construct: expressed in transfected cells; host or cells: CHO-K1 cells
T2 sequence (Q12809 whole entry): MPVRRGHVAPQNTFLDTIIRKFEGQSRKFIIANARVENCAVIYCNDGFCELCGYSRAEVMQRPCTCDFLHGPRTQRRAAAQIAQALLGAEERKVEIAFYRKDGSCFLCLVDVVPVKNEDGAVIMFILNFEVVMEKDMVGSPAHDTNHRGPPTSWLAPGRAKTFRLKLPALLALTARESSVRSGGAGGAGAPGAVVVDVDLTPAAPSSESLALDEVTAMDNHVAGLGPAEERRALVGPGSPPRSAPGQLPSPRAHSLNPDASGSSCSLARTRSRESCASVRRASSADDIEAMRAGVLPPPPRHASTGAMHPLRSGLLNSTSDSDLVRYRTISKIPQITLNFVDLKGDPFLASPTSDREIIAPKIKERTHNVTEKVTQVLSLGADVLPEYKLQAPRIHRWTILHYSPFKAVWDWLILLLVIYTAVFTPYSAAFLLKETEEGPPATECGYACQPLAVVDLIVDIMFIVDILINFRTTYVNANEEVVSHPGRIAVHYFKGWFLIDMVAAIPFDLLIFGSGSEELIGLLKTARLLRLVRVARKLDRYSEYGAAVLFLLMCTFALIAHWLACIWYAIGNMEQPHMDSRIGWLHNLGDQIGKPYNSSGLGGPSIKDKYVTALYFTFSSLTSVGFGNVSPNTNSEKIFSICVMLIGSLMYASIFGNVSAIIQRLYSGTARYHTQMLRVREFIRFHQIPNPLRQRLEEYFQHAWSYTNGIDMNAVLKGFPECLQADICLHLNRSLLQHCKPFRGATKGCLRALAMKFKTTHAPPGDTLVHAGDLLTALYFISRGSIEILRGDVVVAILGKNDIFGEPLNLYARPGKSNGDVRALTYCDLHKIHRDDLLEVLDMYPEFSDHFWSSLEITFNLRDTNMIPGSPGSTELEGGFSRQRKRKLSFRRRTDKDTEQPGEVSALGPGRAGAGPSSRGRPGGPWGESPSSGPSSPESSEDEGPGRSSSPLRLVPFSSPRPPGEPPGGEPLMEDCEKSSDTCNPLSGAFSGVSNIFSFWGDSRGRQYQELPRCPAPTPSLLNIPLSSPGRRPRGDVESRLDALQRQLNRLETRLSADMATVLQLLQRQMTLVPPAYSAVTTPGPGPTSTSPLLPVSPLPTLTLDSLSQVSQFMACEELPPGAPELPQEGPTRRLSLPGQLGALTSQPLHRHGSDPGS
Protocol: The effects of the subject compounds on recombinant hERG potassium channels expressed in CHO-K1 cells was determined according to the procedure reported by Hamill et al., 1981, Pflügers Arch., 391, 85–100
The following solutions were used to isolate potassium currents in cultured cell lines: extracellular (in mM), NaCl (150), KCl (4), HEPES (10), CaCl2 (1.2), MgCl2 (1), adjusted to pH 7.4 with NaOH; intracellular (in mM), KCl (140), HEPES (10), EGTA (5), MgCl2 (6), ATP-Na2 (5), adjusted to pH 7.2 with KOH.
Whole-cell patch-clamp methods were used to record potassium currents from CHO.K1 cells expressing the human hERG channel. Each cell was held at a negative holding potential of −80 mV. […] Peak tail current amplitudes at the different test potentials were measured to obtain the current-voltage relationship.
A second protocol was used to investigate the effects of compounds on hERG currents. […] Drugs were applied once a stable baseline has been recorded for 5 min. […]
Voltage-dependent potassium currents were recorded from single cells at room temperature (20–22° C.) using the whole-cell configuration of the patch-clamp technique. […]
The peak amplitude of outward currents are measured using Clampfit software to find peak amplitude. […]
Statistics were calculated using Microcal Origin and Prism software, and results were reported as mean+/−standard error of the mean. […]

With `COc1ccc(C(=O)NCc2ccc(NC3=NCCN3)cc2)cc1` [compound 96, N-[4-(4,5-Dihydro-1H-imidazol-2-yl-amino)-benzyl]-4-methoxy-benzamide] the Ki [1] was ~7.59 nM, the inhibition at 1 µM (hERG potassium channel; pH 7.4, at 1 uM) was 4.3 ± 4.4% and the inhibition at 10 µM (hERG potassium channel; pH 7.4, at 10 uM) was 10.8 ± 7.2%.
